Data published in PMC3070202 (Biochemistry, 2010).

Assays:
[1] = target: T1, human pancreas-specific protein disulfide isomerase (PDIp) (Homo sapiens, UniProt Q13087); assay: competition with [3H]E2 radioligand binding at […]
T1 sequence (Q13087 22-525): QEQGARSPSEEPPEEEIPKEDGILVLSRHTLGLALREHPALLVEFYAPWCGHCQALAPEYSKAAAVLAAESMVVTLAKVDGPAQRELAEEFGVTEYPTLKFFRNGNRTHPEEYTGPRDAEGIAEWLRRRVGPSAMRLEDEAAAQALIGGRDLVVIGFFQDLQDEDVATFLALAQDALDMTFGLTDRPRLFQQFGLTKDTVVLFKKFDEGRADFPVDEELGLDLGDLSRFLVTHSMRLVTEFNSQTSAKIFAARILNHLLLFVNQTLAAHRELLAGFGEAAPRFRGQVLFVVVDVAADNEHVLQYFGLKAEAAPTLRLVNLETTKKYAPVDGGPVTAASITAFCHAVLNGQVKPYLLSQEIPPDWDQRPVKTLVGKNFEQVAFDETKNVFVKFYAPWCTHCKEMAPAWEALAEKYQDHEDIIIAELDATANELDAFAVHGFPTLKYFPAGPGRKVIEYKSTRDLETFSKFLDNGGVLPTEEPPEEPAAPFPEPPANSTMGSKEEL

[2] = target: T2, human pancreas-specific protein disulfide isomerase (PDIp) (Homo sapiens, UniProt Q13087, Q265L); assay: [3H]E2 saturation radioligand binding
T2 sequence (Q13087 153-366 Q265L limits assumed): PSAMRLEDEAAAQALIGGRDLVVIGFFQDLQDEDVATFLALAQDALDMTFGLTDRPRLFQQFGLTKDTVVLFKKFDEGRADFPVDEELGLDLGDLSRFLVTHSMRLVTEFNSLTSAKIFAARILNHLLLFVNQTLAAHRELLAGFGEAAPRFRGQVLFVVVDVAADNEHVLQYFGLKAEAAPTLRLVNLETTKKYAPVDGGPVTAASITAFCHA

[3] = target: T1, human pancreas-specific protein disulfide isomerase (PDIp); assay: [3H]E2 saturation radioligand binding with Scatchard plot

Kd [2] | Kd [3] | Compound | competition with [3H]E2 radioligand binding at 10 μM [1]
 |  | C[C@]12CC[C@@H]3c4ccc(O)cc4CC[C@H]3[C@@H]1C[C@@H](O)[C@@H]2O [E3] | could efficiently compete with [^3H]E2 for binding to the b-b′ fragment or the full-length PDIp
185 ± 8 nM | ~170 nM | C[C@]12CC[C@@H]3c4ccc(O)cc4CC[C@H]3[C@@H]1CC[C@@H]2O [E2, Estradiol] | 
